Columns and labels:
herring sperm DNA (fDNA) = test: Interaction with fDNA by UV-vis spectroscopy, fluorescence spectroscopy and viscosity method; format: binding; settings: UV-vis, fluorescence (fDNA-EB system), viscosity
From the text: UV-vis spectroscopy, fluorescence spectroscopy and viscosity method are used to study the interaction between the Ame/Ame-Zn complex and herring sperm DNA (fDNA) to further reveal the mechanism of antitumor activity, the obtained spectra are shown in FIGS. 7-11. […] Thereby, it can be speculated that the mechanism of antitumor activity of the Ame and its complex may be that Ame or the complex thereof enters the interior of the cell and intercalates with the DNA strand to cause apoptosis. Since the interaction of the complex with DNA is stronger than of the Ame, the antitumor activity thereof is also stronger than of the Ame.

[1] = ABTS method, ABTS+. free radical scavenging; settings: 25° C., 5 min, 730 nm, from linear equation of scavenging rate vs concentration; read-out: IC50 for scavenging ABTS^+. free radicals
Protocol: Determination of […]. free radical ion scavenging capacity of the blank sample: at 25° C., 2.9 mL ABTS^+. free radical ion working solution was added into a 10 mL sample tube, 100 μL DMSO was added, after reacting for 5 min, the UV-vis spectrum was measured, and the absorption intensity A0 at 730 nm was recorded.
Determination of ABTS^+. free radical ion scavenging capacity of the samples: at 25° C., 2.9 mL ABTS^+. free radical ion working solution was added into a 10 mL sample tube, 100 μL samples of different concentrations that were dissolved in DMSO were added, after reacting for 5 min, the UV-vis spectrum was measured, and the absorption intensity A1 at 730 nm was recorded, and the ABTS^+. free radical ion scavenging rate was calculated according to Formula 4.
The ABTS^+. free radical scavenging capacities of the Ame and the Ame-Zn complex are concentration dependent. Within a certain range, the scavenging rate is linear with the concentration. The curve of the scavenging rate and the concentration (c) is plotted in the present invention to obtain a corresponding linear equation, and the maximum half-inhibitory concentration (IC50 value) is calculated.

[2] = Pyrogallol auto-oxidation method, O2-. free radical scavenging; settings: Tris-HCl pH 8.20, 25° C., 322 nm, read-out: IC50 to scavenge O2^−. free radical
Protocol: The free radical scavenging effects of the Ame and the Ame-Zn complex were studied by pyrogallol auto-oxidation method and ABTS method with the following steps:
(1) Pyrogallol Auto-Oxidation Method
Determination of auto-oxidation rate V0 of pyrogallol: 2 mL Tris-HCl buffer (pH=8.20) was added to a 10 mL sample tube at 25° C., 100 μL DMSO was added as a control, after adding 0.8 mL distilled water, 0.2 mL pyrogallol solution having a concentration of 2 mmol·L^−1 was added, the mixture was poured into a cuvette after mixing uniformly, the absorbance at 322 nm was measured with pure water as a blank, the A value was recorded every 10 s for a total of 4 min, linear regression was performed with t as the abscissa, and A as the ordinate, straight line slope thereof is V0, and the measurement was performed for three times to obtain an average value. […]

## O=c1cc(-c2ccc(O)c(-c3c(O)cc(O)c4c(=O)cc(-c5ccc(O)cc5)oc34)c2)oc2cc(O)cc(O)c12 [Ame, amentoflavone]
Herring sperm DNA (fDNA)
  manner of interaction with fDNA: intercalation manner
[1]
  IC50: 20.7 µM
[2]
  IC50: 23.3 µM
